Measured values from patent publication US20250281607A1, “MEDICAMENT FOR TREATMENT AND/OR PREVENTION OF CANCER” (TORAY INDUSTRIES, INC., priority 2021, published 2025).

How the values were obtained:
[1] = tested on: colon cancer cell line HCT116; assay: THP-1-mediated phagocytic activity against HCT116 (Examples 3 to 6); type: cell-based, human; details: cells cultured 2 days with drug at 10 μM, then anti-CAPRIN-1 humanized antibody #1 1 μg/mL
Description: Specifically, in each RAS inhibitor combination test group, the indicated drug used in combination was applied to human cancer cells, and then the cancer cells were cocultured with human monocytic cells (THP-1) in the presence of the anti-CAPRIN-1 antibody, and the antibody-mediated phagocytic activity against the cancer cells by THP-1 was evaluated.
The human-derived cancer cells used were a colon cancer cell line HCT116. On a 6-well plate, the human-derived cancer cells were cultured for 2 days in the presence of the indicated drug used in combination in the lonafarnib combination test group, the sotorasib combination test group and the salirasib combination test group. […]
Each cancer cell line after the culture was dissociated with TrypLE Express (Thermo), and the cancer cells were stained by the addition of calcein-AM at a final concentration of 0.04 μg/mL and incubation at 37° C. for 10 minutes. […] Further, dead cells were stained with propidium iodide (PI) (final concentration: 0.1 μg/mL), followed by the measurement of fluorescence from the cells by flow cytometry. […] Thus, the phagocytic activity in this evaluation system was calculated as the ratio (%) of APC-positive/calcein-AM-positive cells to the whole calcein-AM-positive population. […]

[2] = tested on: colon cancer cell line HCT116; assay: THP-1-mediated phagocytic activity against HCT116 (Example 2); type: cell-based, human; details: then anti-CAPRIN-1 humanized antibody #1 5 μg/mL, FIG. 2
Description: Specifically, in each combination test group (a trametinib combination test group, a fluorouracil combination test group and an irinotecan combination test group), the indicated drug used in combination was applied to human cancer cells, and then the cancer cells were cocultured with human monocytic cells (THP-1) in the presence of the anti-CAPRIN-1 antibody, and the antibody-mediated phagocytic activity against the cancer cells by THP-1 was evaluated. The human-derived cancer cells used were melanoma cell line A375 (used only in the trametinib combination test group), colon cancer cell line HCT116, prostate cancer cell line DU145 (used only in the trametinib combination test group), and lung cancer cell line A549 (used only in the trametinib combination test group). On a 6-well plate, the human-derived cancer cells were cultured for 2 days in the presence of trametinib for the trametinib combination test group, and cultured for 2 days in the presence of the each drug used in combination for the fluorouracil combination test group and the irinotecan combination test group. The concentration of the drug used in combination was set to a concentration that decreased the proliferation rate of the cancer cells by about half at the completion of culture. […]
Each cancer cell line after the culture was dissociated with TrypLE Express (Thermo), and the cancer cells were stained by the addition of calcein-AM at a final concentration of 0.02 μg/mL and incubation at 37° C. for 30 minutes. […] Further, dead cells were stained with propidium iodide (PI) (final concentration: 0.1 μg/mL), followed by the measurement of fluorescence from the cells by flow cytometry. […] Thus, the phagocytic activity in this evaluation system was calculated as the ratio (%) of APC-positive/calcein-AM-positive cells to the whole calcein-AM-positive population.

With `O=C(Nc1ccc2[nH]nc(-c3ccncc3)c2c1)[C@@H]1CCN(CC(=O)N2CCN(c3ccc(-c4ncccn4)cc3)CC2)C1` [SCH772984, (3R)-1-[2-oxo-2-[4-(4-pyrimidin-2-ylphenyl)piperazin-1-yl]ethyl]-N-(3-pyridin-4-yl-1H-indazol-5-yl)pyrrolidine-3-carboxamide] the “phagocytic activity against cancer cells” value ([1]; FIG. 5) was 90%.

With `COc1cc(Nc2c(C#N)cnc3cc(OCCCN4CCN(C)CC4)c(OC)cc23)c(Cl)cc1Cl` [bosutinib, 4-(2,4-dichloro-5-methoxyanilino)-6-methoxy-7-[3-(4-methylpiperazin-1-yl)propoxy]quinoline-3-carbonitrile] the “phagocytic activity against cancer cells” value ([1]; FIG. 3) was 82%.

`O=c1[nH]cc(F)c(=O)[nH]1` [fluorouracil] was tested, and the “phagocytic activity against cancer cells” value ([2]; cells cultured 2 days with drug at 0.4 μg/mL) was 16%.

For `CCc1c2c(nc3ccc(OC(=O)N4CCC(N5CCCCC5)CC4)cc13)-c1cc3c(c(=O)n1C2)COC(=O)[C@]3(O)CC` [irinotecan], the “phagocytic activity against cancer cells” value ([2]; cells cultured 2 days with drug at 15 μM) was 14%.
